# Where two headings read alike, the source gives them in different places.
# How the values were obtained:
# [1] = system: osteoclast (TRAP-positive multinuclear cell) formation; assay: Inhibitory effect on osteoclast formation (TRAP staining); format: cell-based, mice; conditions: Mus musculus, Osteoclast, compared to control, read-out: Osteoclast formation inhibitory effects (%)
# Outline: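 Non-adherent bone marrow cells from 7–9-week-old female mice, 2×10^5 per well, cultured 8 days with M-CSF (20 ng/ml), RANKL (30 ng/ml) and compound at 0.3, 1.0 or 3 μM. Formation scored by TRAP staining after fixation, 1 h at 37 °C, pH 5.0.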
# [2] = system: MG-63 cells; assay: Cytotoxicity test against osteoblast (MTT); format: cell-based, human
# Outline: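 MG-63 human osteosarcoma cells exposed to 0.1, 0.3, 1.0 and 3.0 μM compound in DMEM with 10% FBS. Osteoclast progenitors in the same text were run at 2, 4 and 8 μM, 48 h, α-MEM + 20 ng/ml M-CSF, 37 °C; MTT added 3 h before end, A550 as % of control.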
# [3] = In vivo pharmacokinetics using female mice (serum concentration, HPLC); conditions: for Half-life: read-out: Half-life (converted); for clearance: read-out: CL (clearance) (converted); for Vd: read-out: Vd (volume of distribution)
# Method: Female mice each weighing […] were divided into groups of 5 mice each. The mice were anesthetized with ether, catheterized in their femoral artery and vein, respectively, and administered with 0.5 mg/kg body weight of compounds 234 and 274, and 5 mg/kg body weight of compounds 388, 404 and 415, respectively, via intravenous injection. Alternatively, 15 mg/kg body weight of compound 274 and 10 mg/kg body weight of compound 234 were orally administered to the mice.
# At 0, 5, 10, 15 and 30 minutes and 1, 2, 4, 6, 9 and 12 hours after the intravenous injection, or at 0, 10, 20 and 40 minutes and 1, 2, 4, 6, 9 and 12 hours after the oral administration, 0.3 ml blood samples were taken from the mice through femoral artery. The blood samples were kept on an ice bath for 30 minutes and centrifuged at 3,000 rpm for 10 minutes to obtain a supernatant (serum). The supernatant samples were stored at −20° C.
# Standard solution: Compounds 234, 274, 388, 404 and 415 were respectively dissolved in methanol to a concentration of 1 mg/ml to obtain stock solutions. The stock solutions were diluted with methanol to obtain standard solutions having concentrations of 40, 20, 10, 2, 1, 0.5, 0.2, 0.05 and 0.02 μg/ml, respectively.
# Standard calibration curve: A stand calibration curve was prepared by employing calibration concentrations of 0.002, 0.005, 0.02, 0.05, 0.1, 0.2, 1, 2 and 4 μg/ml.
# 10 μl each of the standard solutions prepared above was added to 100 μl of normal serum sample and diluted 10 times. 250 μl of acetonitrile was added to the resulting dilution and the mixture was centrifuged for 10 minutes to obtain a supernatant. 300 μl of the supernatant was dried by evaporation under a nitrogen atmosphere and reconstituted by adding 50 μl of methanol. 20 μl of the resulting solution was analyzed by HPLC to prepare a standard calibration curve. HPLC was performed with Shimadzu ODS2 column (4.6×250 mm, 5 μm by employing a mixture of methanol/water (90/10 (v/v)) as the mobile phase at a flow rate of 1.2 ml/min, and measuring the absorbance at 240 nm.
# Extraction: 100 μl of the serum sample obtained in (4-2-1) was put into a 1 ml microtube and 10 μl of methanol was added thereto. 250 μl of acetonitrile was added to the microtube and the mixture was centrifuged for 10 minutes to obtain a supernatant. 300 μl of the supernatant was dried by evaporation under a nitrogen atmosphere and reconstituted by adding 50 μl of methanol. 20 μl of the resulting solution was analyzed by the HPLC method as above.
# Average concentrations of the compounds in the serum samples were plotted in a semi-log scale against the time lapsed after the administration, and the pharmacokinetic parameters were determined as a non-compartment open model by employing WinNonlin® program (Pharsight Corporation).
smiles,measurement,setting,value
"CO/C=C(/C(=O)OC)c1ccc(Cl)cc1COc1ccc(OCCOC)cc1 [Compound No. 274, (E)-methyl-2-(2-((4-(2-methoxyethoxy)phenoxy)methyl)-4-chlorophenyl)-3-methoxyacrylate]",inhibition at 0.3 µM,"[1]; 192 h, 0.3 μM, 8 days culture with M-CSF and RANKL",100%
same,inhibition at 1 µM,"[1]; 192 h, 1.0 μM, 8 days culture with M-CSF and RANKL",100%
same,inhibition at 3 µM,"[1]; 192 h, 3.0 μM, 8 days culture with M-CSF and RANKL",100%
same,"relative absorbance relative to that of the control (set as 100), MTT",[2]; 0.11 uM,113
same,"relative absorbance relative to that of the control (set as 100), MTT",[2]; 0.33 uM,108
same,"relative absorbance relative to that of the control (set as 100), MTT",[2]; 1 uM,106
same,"relative absorbance relative to that of the control (set as 100), MTT",[2]; 3 uM,94
same,AUC (area under the curve of blood concentration versus time),[3]; I.V.,47200 ± 25800 ng·h/mL
same,AUC (area under the curve of blood concentration versus time),[3]; Oral,80600 ± 45400 ng·h/mL
same,CL (clearance),[3]; Oral,7.5 ± 3.4 mL/h
same,Vd (volume of distribution),[3]; Oral,0.0434 ± 0.0468 L/kg
same,Half-life,"[3]; mouse, serum, 15 mg/kg, Oral",4.2 ± 3.7 h
same,bioavailability,"[3]; mouse, serum, 15 mg/kg, oral versus I.V., read-out: Bioavailability",8.5%
same,clearance,"[3]; mouse, serum, iv, I.V.",0.238 mL/min
same,Half-life,"[3]; mouse, serum, iv, I.V.",3.5 ± 2.3 h
same,Vd,"[3]; mouse, serum, iv, I.V.",0.0503 ± 0.0098 L/kg
"CO/C=C(/C(=O)OC)c1ccccc1COc1cccc(N2CCCCC2)c1 [Compound No. 388, (E)-methyl-2-[2-((3-(piperidin-1-yl)phenoxy)methyl)phenyl]-3-methoxyacrylate]",inhibition at 0.1 µM,[1]; 0.1 μM (Table 4b),0%
same,inhibition at 0.3 µM,[1]; 0.3 μM (Table 4b),99%
same,inhibition at 1 µM,[1]; 1 μM (Table 4b),100%
same,inhibition at 3 µM,[1]; 3 μM (Table 4b),100%
same,relative absorbance (MTT) relative to control (set as 100),[2]; 0.33 μM compound,105
same,relative absorbance (MTT) relative to control (set as 100),[2]; 1 μM compound,84
same,relative absorbance (MTT) relative to control (set as 100),[2]; 3 μM compound,81
same,AUC (area under the curve of blood concentration versus time),[3]; I.V.,112600 ± 13000 ng·h/mL
same,clearance,"[3]; mouse, serum, iv, I.V.",0.0483 mL/min
same,Half-life,"[3]; mouse, serum, iv, I.V.",7.3 ± 1.2 h
same,Vd,"[3]; mouse, serum, iv, I.V.",0.0274 ± 0.002 L/kg
